The source of these data is patent US11903908B2, “Methods of administering amantadine” (Adamas Pharma, LLC, priority 2013, dated 2024).

Data set [1] concerns subjects with Parkinson's Disease (PD) who have levodopa-induced dyskinesia (LID). Description: Randomized, double-blind, placebo-controlled study of Amantadine ER capsules for levodopa-induced dyskinesia in Parkinson's Disease (Example 5).
Description: Study Objectives: This study was designed to evaluate the efficacy of three dose levels of Amantadine Extended Release (ER) oral capsules dosed once nightly at nighttime for the treatment of levodopa-induced dyskinesia (LID) in subjects with Parkinson's Disease (PD). […] Study design: This was a multi-center, randomized, double-blind, placebo-controlled, 4-arm parallel group study of Amantadine ER in subjects with PD who have LID.
Subjects who were randomized to Treatment C received, in double-blind fashion, 260 mg Amantadine ER once nightly during week 1, with an increase to 340 mg once nightly at the beginning of week 2. Subjects who were randomized to Treatment D, in double-blind fashion, 260 mg Amantadine ER once nightly during week 1, with an increase to 340 mg Amantadine ER once nightly during week 2, with a further increase to 420 mg once nightly at the beginning of week 3. Dosing for all groups continued at the nominal dose through week 8.
Following completion of the baseline visit and randomization, subjects returned to the clinic after 1, 2, 4, 6, and 8 weeks of dosing, with a follow-up visit 14 days following the last dose of study drug. Study visits and assessments were scheduled during the hours between 10 am through 4 pm. A set of two 24-hour diaries were be completed during 48 hours prior to randomization and 48 hours prior to selected study visits. The diary was used to score five different conditions in 30-minute intervals: Sleep, OFF, ON without dyskinesias, ON with nontroublesome dyskinesias, ON with troublesome dyskinesias.
Blood samples were collected at selected study visits for determination of amantadine plasma concentrations, and evaluation of steady-state population pharmacokinetics. Subject participation during the study was up to 12 weeks including a 2-week (maximum) screening period, 8-week (maximum) treatment period, and a 2-week follow-up period. Subjects unable to tolerate their assigned study drug assignment permanently discontinued study drug and continued to be followed for safety through 2 weeks following the last dose of study drug. […]
In data set [2] the test system is PD patients with levodopa-induced dyskinesia (LID). The conditions noted are these: cited from earlier work.
The mark [3] stands for this setting: amantadine IR 200 mg/day, PD patients.

The structures appear in SMILES notation. Where a name gives a salt, the structure may show the parent alone. Read-outs that look alike come from different tables or passages of the source.

For the molecule `NC12CC3CC(CC(C3)C1)C2` [amantadine, Amantadine HCl], in data set [1] (420 mg once nightly), the discontinuation rates entry is reported as “higher discontinuation rates” and the “frequency of side effects” value was “comparable frequency of side effects”. In addition, the tolerability entry in data set [1] (260-420 mg once nightly, Parkinson's disease patients) is listed as “well tolerated”. Besides, in data set [2] (setting [3]), the “reduction in LID” value was “approximately 25%” and the tolerability entry is recorded as “generally tolerated by the majority of PD patients”. Also, the CNS side effects entry in data set [2] (amantadine IR 300 mg/day or higher) is reported as “associated with central nervous system (CNS) side effects”. Besides, the “reduction of LID” value in data set [2] (amantadine IR 300 mg/day, PD patients) was about 40%. Also, the “reduction of LID” value in data set [2] (amantadine IR 300 to 400 mg/day, one study) was about 60%. For the same molecule, the “effect on motor fluctuations (ON/OFF)” value in data set [2] (later stages of PD) is reported as “no effect”.
